What was measured:
[1] = target: T1, TGF-β1 (Homo sapiens, UniProt P01137); experiment: SPR competitive binding: soluble GAG competes for TGF-β1 against heparin-coated chip; settings: for ability to competitively inhibit TGF-β1 binding to immobilized heparin: 200 nM TGF-β1 pre-incubated with 5 or 10 μg GAG
T1 construct: full length mature TGF-β1 is 112 amino acids in length
Method: Biotinylated heparin was prepared based on the protocol reported by Hernaiz et al. (33). Briefly, 20 mg of heparin was filter-sterilized (0.22 μm) in 1 ml of water and incubated with 8.6 μmol of N-hydroxysuccinimide-biotin (NHS-biotin) (Pierce) in 20 μl of dimethyl sulfoxide (DMSO) for 2 h at 4° C. The biotinylated heparin was then extensively dialyzed (7000 MWCO) to remove unreacted biotin. Immobilization of the biotinylated heparin onto a streptavidin (SA) sensor chip (GE Healthcare) was carried out using the immobilization wizard on the Biacore T100 (GE Healthcare) with a targeted immobilization level of approximately 40 response units (RUs). HBS-EP running buffer (10 mM HEPES, 150 mM NaCl, 3.0 mM EDTA, 0.05% (v/v) Tween 20, pH 7.4) was used for the immobilization.
TGF-β1-heparin interactions were effected by preparing a series of TGF-β1 protein samples (50 to 800 nM final concentration) diluted in HBS-EP-0.1 running buffer (0.1% instead of 0.05% (v/v) Tween 20). […] The sample solutions were then injected over the heparin-coated chip at a flow rate of 30 μl/min for 120 s, with HBS-EP-0.1 being subsequently passed over the chip for a further 1200 s to monitor TGF-β1 dissociation. After dissociation, the sensor surface on the chip was regenerated by 2 washes of 2 M NaCl injected at 30 μl/min for 60 s. The response was measured as a function of time (sensogram) at 25° C. The maximum binding response for each condition was normalized to the response obtained from TGF-β1 alone.

[2] = target: T1, TGF-β1; experiment: GAG-binding plate assay; settings: wells coated with 5 μg/ml GAG
Method: GAGs are immobilized in each well and then challenged with TGF-β1 according to the manufacturer's instructions. Briefly, triplicate wells are first pre-coated with 5 μg/ml of heparin, HS^PM, HS16^+ve or HS16^−ve in standard assay buffer (SAB: 100 mM NaCl, 50 mM sodium acetate, 0.2% v/v Tween 20, pH 7.2), and then incubated overnight at room temperature. The plates are next washed carefully three times with SAB, blocked with 250 μl of blocking solution (0.4% w/v fish skin gelatine, Sigma-Aldrich, in SAB) and incubated for 1 h at 37° C. TGF-β1 was then dissolved in blocking solution at a concentration of 100, 200, or 400 ng/ml. The plates are washed three times with SAB and each dilution of protein (200 μl) is dispensed into triplicate wells and incubated for 2 h at 37° C., rinsed with SAB and 200 μl of 750 ng/ml monoclonal mouse anti-TGF-β1 antibody (MAB2401, R&D Systems) added in blocking solution. Plates are then incubated for 1 h at 37° C., washed with SAB, and 200 μl of 1 μg/ml polyclonal goat anti-mouse biotinylated antibody (ab6788, Abcam) added in blocking solution. Again, plates are incubated for 1 h at 37° C., washed with SAB, and 200 μl of 220 ng/ml ExtrAvidin AP (Sigma-Aldrich) is added in blocking solution, incubated for 30 min at 37° C., and then rinsed with SAB. Finally, 200 μl of development reagent (SigmaFAST p-Nitrophenyl phosphate, Sigma-Aldrich) is added, incubated at 37° C. for 40 min and read at 405 nm within 1 h.
To determine the ability of TGF-β1 to bind to heparin, we utilized positively-charged GAG-binding plates (Iduron) as a capture substrate. GAGs were immobilized in each well and then challenged with TGF-β1 according to the manufacturer's instructions. Briefly, triplicate wells were first pre-coated with 5 μg/ml of full length heparin, size-fractionated heparin (dp14, 16, 18, 20, 22 and 24) or selectively […] heparin prepared in standard assay buffer (SAB: 100 mM NaCl, 50 mM sodium acetate, 0.2% v/v Tween 20, pH 7.2), and then incubated overnight at room temperature. The plates were next washed carefully three times with SAB, blocked with 250 μl of blocking solution (0.4% w/v fish skin gelatine, Sigma-Aldrich, in SAB) and incubated for 1 h at 37° C. TGF-β1 was then dissolved in blocking solution at a concentration of 100, 200, or 400 ng/ml. The plates were washed three times with SAB and each dilution of protein (200 μl) was dispensed into triplicate wells and incubated for 2 h at 37° C., rinsed with SAB and 200 μl of 750 ng/ml monoclonal mouse anti-TGF-β1 antibody (MAB2401, R&D Systems) added in blocking solution. […] Finally, 200 μl of development reagent (SigmaFAST p-Nitrophenyl phosphate, Sigma-Aldrich) was added, incubated at 37° C. for 40 min and read at 405 nm within 1 h.

[3] = tested on: TGF-β1 signaling (pSMAD2, pSMAD3) in hMSCs; experiment: Western blotting of pSMAD2/pSMAD3 in hMSCs treated with TGF-β1 and GAG; assay type: cell-based, human; settings: TGF-β1 1 ng/ml pre-incubated with 10 μg/ml GAG; 6 h
Method: Primary hMSCs (Lonza) were isolated from the bone marrow mononuclear cells of a young healthy adult human donor by plastic adherence and characterized as previously described (30,31). The adherent cells were maintained in a basal media consisting of DMEM-low glucose (1000 mg/l, DMEM-LG) supplemented with 10% fetal calf serum, 100 U/ml penicillin, 100 μg/ml streptomycin and 2 mM L-glutamine, and cultured under standard conditions at 37° C. and 5% CO2 in a humidified atmosphere. Media replacement was every three days. Cells were detached with 0.125% trypsin/Versene (pH 7.0) upon reaching 75-80% confluence, and re-plated at a density of 3,000 cells/cm^2 under the same culture conditions. All experiments were carried out with cells at passage 5.
Human MSCs were cultured in 6-well plates in basal media for 24 h at a density of 10,000 cells/cm^2. TGF-β1 treatments were then prepared at either 1 ng/ml or 5 ng/ml alone or in the presence of either 10 μg/ml or 40 μg/ml of full length heparin, or 1 ng/ml of TGF-β1 with 10 μg/ml size-fractionated or selectively desulfated heparin, HS^PM, HS16+ or HS16−, and incubated at room temperature for 10 min before being added to the cells. Latent TGF-β1 (LTGF-β1) treatments were similarly prepared at 3.3 ng/ml alone or with 10 μg/ml of the various GAGs described above. For inhibitor studies, the cells were pre-treated for 30 min with 10 μM SB431542 (Sigma-Aldrich) or DMSO before treatment with TGF-β1. […] Samples were then immunoblotted with antibodies against SMAD2/3 (#3102, Cell Signaling), phosphorylated SMAD2 (pSMAD2, #3108, Cell Signaling), phosphorylated SMAD3 (pSMAD3, #9520, Cell Signaling) and actin (MAB1501R, Millipore). Densitometry was carried out using Quantity One software (version 4.6.6, Bio-Rad).

[4] = tested on: chondrogenic differentiation of hMSCs; experiment: qPCR of day 3 chondrogenic micromass pellets (Example 1); assay type: cell-based, human; settings: 3-day old pellets; SB431542 10 μM vs DMSO
Method: Chondrogenic differentiation was carried out using a modified micromass culture system as described by Zhang et al. (32). Briefly, passage 4 hMSCs were harvested and resuspended in chemically defined chondrogenic media (PT-3003, Lonza) at 2×10^7 cells/ml. Droplets of 12.5 μl were then seeded into the middle of each well in a 24-well plate and left to adhere at 37° C. for 2 h, after which, 500 μl of chondrogenic media supplemented with either 10 ng/ml of TGF-β1 (100-21C, PeproTech) alone (Media) or TGF-β1 with 10 μg/ml of heparin (Sigma-Aldrich) (Media+Hep) was added to each well. The cell droplets coalesced into spherical masses after 24 h and the micromasses harvested on day 3. Human MSCs were cultured in 6-well plates in basal media for 24 h at a density of 10,000 cells/cm^2. TGF-β1 treatments were then prepared at either 1 ng/ml or 5 ng/ml alone or in the presence of either 10 μg/ml or 40 μg/ml of full length heparin, or 1 ng/ml of TGF-β1 with 10 μg/ml size-fractionated or selectively desulfated heparin, HS^PM, HS16+ or HS16−, and incubated at room temperature for 10 min before being added to the cells. Latent TGF-β1 (LTGF-β1) treatments were similarly prepared at 3.3 ng/ml alone or with 10 μg/ml of the various GAGs described above. For inhibitor studies, the cells were pre-treated for 30 min with 10 μM SB431542 (Sigma-Aldrich) or DMSO before treatment with TGF-β1. The cells were then subjected to the various TGF-β1 treatments for 1, 6 or 24 h and lysed in 2× Laemmli buffer, before being resolved on a 4-12% SDS-PAGE gel. Samples were then immunoblotted with antibodies against SMAD2/3 (#3102, Cell Signaling), phosphorylated SMAD2 (pSMAD2, #3108, Cell Signaling), phosphorylated SMAD3 (pSMAD3, #9520, Cell Signaling) and actin (MAB1501R, Millipore). Densitometry was carried out using Quantity One software (version 4.6.6, Bio-Rad). Total RNA was isolated from chondrogenic micromass pellets using TRIZOL reagent (Invitrogen, Life Technologies) according to the manufacturer's protocol. Reverse transcription was carried out on 1 μg RNA using the SuperScript® VILO™ cDNA Synthesis Kit (Invitrogen, Life Technologies) following the manufacturer's instructions, with the incubation at 42° C. being carried out for 2 h instead of 1 h. Each qPCR contained 40 ng cDNA, 1 μl TaqMan® primer-probe mix per gene, and 10 μl Taqman® Fast Universal PCR Master Mix (Applied Biosystems, Life Technologies) in a final volume of 20 μl. Thermal cycling conditions were 95° C. for 20 s, followed by 45 cycles of 95° C. for 3 s and 60° C. for 30 s. Each qPCR was run in duplicate and gene expression was normalized to HPRT1 expression to obtain the ΔCt value. […] Relative expression levels for each primer set were expressed as fold changes by the 2^−ΔΔCt method (36). […]

T1 sequence (P01137 279-390 limits assumed): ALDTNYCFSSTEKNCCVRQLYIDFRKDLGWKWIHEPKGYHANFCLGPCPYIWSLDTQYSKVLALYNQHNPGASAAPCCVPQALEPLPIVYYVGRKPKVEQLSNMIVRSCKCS

| Molecule | ability to competitively inhibit TGF-β1 binding to immobilized heparin [1] | reduction of TGF-β1 binding compared to fully sulfated, full-length heparin [2] | pSMAD2 and pSMAD3 levels [3] | loss of TGF-β1-binding ability ([1]; 200 nM TGF-β1 with 5 or 10 μg GAG, relative to heparin) | COMP gene expression [4] | SOX9 gene expression [4] | TGF-β1 binding to immobilized GAG ([2]; TGF-β1 100, 200 or 400 ng/ml) |
| --- | --- | --- | --- | --- | --- | --- | --- |
| 2-O-desulfated heparin | minimal effect | about 60% | increase to levels beyond those seen in heparin-treated cells | – | – | – | – |
| 6-O-desulfated heparin | – | approximately 80% | stabilization of pSMAD levels | approximately 40% | – | – | – |
| NC(=O)c1ccc(-c2nc(-c3ccc4c(c3)OCO4)c(-c3ccccn3)[nH]2)cc1 [SB431542] | – | – | – | – | reduction | reduction | – |
| N-desulfated heparin | abrogated | – | did not lead to an increase in pSMAD levels | – | – | – | essentially abolished |

Source: US10596296B2, “Heparan sulphates” (Agency for Science, Technology and Research, priority 2014, dated 2020)
